Measurements published in patent US9809623B2, “α4β7 peptide monomer and dimer antagonists” (Protagonist Therapeutics, Inc., priority 2014, dated 2017).
Read-outs that look alike come from different tables or passages of the source. Numbered stars: 1 amine (or outer) side, 2 acyl side, 3 side chain; on linkers, the order of the positions; unused ones are H or OH. Bridge positions count the residues as written; N and C are the ends. Square brackets hold non-standard residues; d marks the D form. Peptide text beside a SMILES is read from it. I, II: the chains in the order shown. X1 = O=C(CCOCCOCCOCCOCCOCCOCCOCCOCCOCCOCCOCCOCCOCCOCCOCCOCCOCCOCCOCCOCCOCCOCCOCCOCCOCCOCCC(=O)[*:2])[*:1]; Phe(4-tBu) = CC(C)(C)c1ccc(C[C@H](N)C(=O)O)cc1; 2Nal = N[C@@H](Cc1ccc2ccccc2c1)C(=O)O; Diglycolyl = O=C(COCC(=O)[*:2])[*:1]; NMeR = CN[C@@H](CCCNC(=N)N)C(=O)O; β3hE = N[C@@H](CCC(=O)O)CC(=O)O; Pen = CC(C)(S)[C@H](N)C(=O)O

Tests used:
[1] = Simulated Gastric Fluid (SGF) Assay; assay type: in vitro ADME; conditions: pig, simulated gastric fluid (SGF) with porcine pepsin, pH 2; Table 4-C, t1/2
Protocol: SGF was prepared by adding 20 mg NaCl, 32 mg porcine pepsin (MP Biochemicals, catalog 02102599), and 70 μl HCl to 10 ml water (final pH=2). Aliquots of SGF (0.5 ml each) were pre-warmed at 37° C. For each peptide tested, to start the reaction, 1 μl of peptide stock solution (10 mM in DMSO) was added to 0.5 ml SGF and thoroughly mixed such that the final peptide concentration was 20 μM. The reactions were incubated at 37° C. with gentle shaking. At each time point (0, 15, 30, 60 min), 50 μl aliquots were removed and added to 200 ul acetonitrile containing 0.1% formic acid to quench the reaction. Samples were stored at 4° C. until the end of the experiment and centrifuged at 10,000 rpm for 5 minutes. Aliquots of the supernatant were removed, diluted 1:1 into distilled water containing internal standard, and analyzed by LCMS/MS. Percent remaining at each timepoint was calculated based on the peak area response ratio of test compound to internal standard. Time 0 was set to 100%, and all later timepoints were calculated relative to time 0. Half-lives were calculated by fitting to a first-order exponential decay equation using GraphPad.

[2] = Plasma Stability Assay; assay type: in vitro ADME; conditions: rat, Table 4-C, t1/2
Protocol: 0.5 mL of rat plasma (one tube per peptide, volume depends on how many time points are to be collected, 50 μL per time point) was added to each well of a 96-well polypropylene plate, and the tubes were incubated in a heated water bath, preset to 37° C. with gentle shaking. 1 μL of 10 mM peptide stock solution was added to each tub, and then 200 μL of Acetonitrile w/0.1% Formic Acid was added to each tube (1:4). Samples were collected at the following time points: 0, 10, 30, 45, 60, 120, 180 mins. When all time points were collected, the plate was centrifuged at 5000 rpm for 5 mins. LCM analysis was performed by pipetting 100 μL of each sample to appropriate well of a 96-well deep plate. 100 μL of an internal standard peptide (1 ug/mL) was added in Mobile Phase A to each well. The plate was vortexed and injected

[3] = Simulated Intestinal Fluid (SIF) Stability Assay; assay type: in vitro ADME, porcine; conditions: pig, simulated intestinal fluid (SIF) with 1% porcine pancreatin
Procedure, shortened: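 Intestinal stability: percent peptide remaining over time, by LC-MS/MS peak-area ratio to internal standard, fitted to first-order decay for half-life. Conditions: 22 μM peptide, 1% pancreatin in pH 6.5 blank FASSIF, 37 °C.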

[4] = Dithiothreitol (DTT) Redox Stability Assay; assay type: physicochemical; conditions: Table 4-C, t1/2, 0.5 mM DTT
Protocol: For each peptide tested, the DTT stability assay was conducted by adding 5 μl of a 10 mM peptide stock solution in DMSO to 1 ml of 100 mM Tris-Cl, pH 7.5 (final peptide concentration is 50 μM). At time 0 min, 5 ul of a freshly thawed 100 mM DTT solution was added to the incubation tube containing the peptide, such that the final DTT concentration was 0.5 mM. The reactions were incubated at room temperature. At different time points up to 120 minutes (20 min, 40 min, 80 min, 120 min), 50 ul aliquots were removed, and the reaction was quenched by adding 10 μl of 5M acetic acid. To measure disappearance of the parent peptide, the quenched samples (30 μl) were analyzed by reverse phase HPLC and UV absorbance at 220 nm. The fraction oxidized remaining was graphed versus time, and half-lives were calculated by fitting to a first-order exponential decay equation using Excel.

[5] = target: T1, rh integrin α4β7 (Homo sapiens, UniProt P13612+P26010); assay: α4β7-MAdCAM Competition ELISA; assay type: binding; conditions: Table 4-B; read-out: ELISA α4β7 IC50
T1 construct: purchased R&D Systems 5397-A30
T1 sequence (P13612 34-977 limits assumed): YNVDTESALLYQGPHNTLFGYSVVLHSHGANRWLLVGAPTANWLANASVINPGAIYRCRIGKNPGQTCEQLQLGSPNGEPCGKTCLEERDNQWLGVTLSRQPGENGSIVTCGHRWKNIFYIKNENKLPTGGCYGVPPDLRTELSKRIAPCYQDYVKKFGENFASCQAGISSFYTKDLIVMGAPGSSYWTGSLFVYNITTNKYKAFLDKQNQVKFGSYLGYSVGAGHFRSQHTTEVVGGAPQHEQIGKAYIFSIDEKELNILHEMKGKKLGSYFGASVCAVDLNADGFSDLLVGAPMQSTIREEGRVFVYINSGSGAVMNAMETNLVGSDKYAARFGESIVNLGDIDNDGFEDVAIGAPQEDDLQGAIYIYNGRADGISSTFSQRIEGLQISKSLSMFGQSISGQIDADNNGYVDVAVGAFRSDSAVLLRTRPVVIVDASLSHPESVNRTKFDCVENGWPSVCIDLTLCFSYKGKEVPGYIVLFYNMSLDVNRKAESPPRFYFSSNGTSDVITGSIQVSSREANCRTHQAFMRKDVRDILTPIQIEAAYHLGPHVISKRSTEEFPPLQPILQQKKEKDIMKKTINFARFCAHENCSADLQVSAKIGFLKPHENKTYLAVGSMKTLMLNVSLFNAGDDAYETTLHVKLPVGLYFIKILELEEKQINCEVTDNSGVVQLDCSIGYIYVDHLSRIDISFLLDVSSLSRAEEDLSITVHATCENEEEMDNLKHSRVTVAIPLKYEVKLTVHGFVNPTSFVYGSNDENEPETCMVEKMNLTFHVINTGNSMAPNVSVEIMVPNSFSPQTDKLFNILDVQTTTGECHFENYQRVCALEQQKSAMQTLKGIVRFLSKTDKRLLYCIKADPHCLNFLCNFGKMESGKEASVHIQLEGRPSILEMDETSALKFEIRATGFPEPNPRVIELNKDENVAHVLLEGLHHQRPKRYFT
T1 sequence (P26010 20-723 limits assumed): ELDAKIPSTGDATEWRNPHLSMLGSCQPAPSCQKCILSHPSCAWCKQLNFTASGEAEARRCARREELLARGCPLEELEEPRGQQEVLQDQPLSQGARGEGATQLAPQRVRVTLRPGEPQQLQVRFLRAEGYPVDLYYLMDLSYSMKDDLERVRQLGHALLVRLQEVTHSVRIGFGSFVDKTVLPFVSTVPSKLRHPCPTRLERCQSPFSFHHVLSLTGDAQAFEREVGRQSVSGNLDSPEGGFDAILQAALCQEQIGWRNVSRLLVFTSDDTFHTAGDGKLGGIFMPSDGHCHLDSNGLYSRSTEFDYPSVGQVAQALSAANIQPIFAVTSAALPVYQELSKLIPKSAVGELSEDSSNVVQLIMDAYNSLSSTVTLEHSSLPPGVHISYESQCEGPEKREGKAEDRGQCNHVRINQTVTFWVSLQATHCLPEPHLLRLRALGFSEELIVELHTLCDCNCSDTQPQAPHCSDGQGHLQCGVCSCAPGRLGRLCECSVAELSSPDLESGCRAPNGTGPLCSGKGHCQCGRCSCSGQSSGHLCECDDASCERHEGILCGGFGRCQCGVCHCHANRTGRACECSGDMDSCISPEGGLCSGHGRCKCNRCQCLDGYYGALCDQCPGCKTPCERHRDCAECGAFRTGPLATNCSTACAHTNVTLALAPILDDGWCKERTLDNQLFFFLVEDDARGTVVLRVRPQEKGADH
Procedure, shortened: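 Competition read-out was A450 after anti-human IgG1-HRP and TMB detection of bound recombinant human MAdCAM-1 (10 nM final). Peptides were serially diluted 3-fold from a final 10 μM and equilibrated 1 h at room temperature on nickel-captured α4β7 (800 ng/well). The buffer was Tris pH 7.6 with 1 mM Mn2+ or Mg2+.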

[6] = target: T2, α4β7 (Homo sapiens, UniProt P13612+P26010); assay: α4β7-MAdCAM Cell Adhesion Assay (RPMI 8866 human cells); assay type: cell-based; design: host or cells: RPMI 8866 human B lymphoblastoid cells; conditions: Table 3-B, Potency (α4β7); range classes; read-out: α4β7 cell (Hu) IC50
T2 sequence (P13612 34-1032): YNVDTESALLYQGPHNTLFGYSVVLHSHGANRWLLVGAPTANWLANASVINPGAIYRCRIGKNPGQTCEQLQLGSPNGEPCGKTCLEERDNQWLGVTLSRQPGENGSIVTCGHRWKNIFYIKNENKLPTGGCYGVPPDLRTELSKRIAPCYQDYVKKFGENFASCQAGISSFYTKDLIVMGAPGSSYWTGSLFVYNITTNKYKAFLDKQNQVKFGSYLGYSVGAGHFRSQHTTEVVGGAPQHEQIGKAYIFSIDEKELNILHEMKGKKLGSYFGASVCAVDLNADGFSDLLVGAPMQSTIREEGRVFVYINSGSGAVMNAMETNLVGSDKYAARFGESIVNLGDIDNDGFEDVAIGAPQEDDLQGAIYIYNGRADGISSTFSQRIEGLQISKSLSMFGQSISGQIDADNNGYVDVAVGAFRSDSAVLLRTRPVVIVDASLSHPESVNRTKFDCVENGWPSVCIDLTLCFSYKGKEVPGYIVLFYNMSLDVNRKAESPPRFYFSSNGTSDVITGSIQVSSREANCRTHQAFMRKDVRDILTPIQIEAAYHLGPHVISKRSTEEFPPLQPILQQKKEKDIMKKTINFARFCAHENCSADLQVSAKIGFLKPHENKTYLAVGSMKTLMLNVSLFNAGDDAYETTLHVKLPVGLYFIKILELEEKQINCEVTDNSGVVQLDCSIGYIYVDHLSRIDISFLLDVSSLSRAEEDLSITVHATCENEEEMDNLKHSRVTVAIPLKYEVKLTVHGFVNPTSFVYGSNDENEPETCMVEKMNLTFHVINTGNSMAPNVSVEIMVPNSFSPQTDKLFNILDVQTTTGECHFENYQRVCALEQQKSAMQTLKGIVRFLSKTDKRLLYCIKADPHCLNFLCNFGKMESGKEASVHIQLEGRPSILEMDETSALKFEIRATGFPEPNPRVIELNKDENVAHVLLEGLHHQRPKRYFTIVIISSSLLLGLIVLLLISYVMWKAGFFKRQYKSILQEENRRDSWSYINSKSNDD
T2 sequence (P26010 20-798): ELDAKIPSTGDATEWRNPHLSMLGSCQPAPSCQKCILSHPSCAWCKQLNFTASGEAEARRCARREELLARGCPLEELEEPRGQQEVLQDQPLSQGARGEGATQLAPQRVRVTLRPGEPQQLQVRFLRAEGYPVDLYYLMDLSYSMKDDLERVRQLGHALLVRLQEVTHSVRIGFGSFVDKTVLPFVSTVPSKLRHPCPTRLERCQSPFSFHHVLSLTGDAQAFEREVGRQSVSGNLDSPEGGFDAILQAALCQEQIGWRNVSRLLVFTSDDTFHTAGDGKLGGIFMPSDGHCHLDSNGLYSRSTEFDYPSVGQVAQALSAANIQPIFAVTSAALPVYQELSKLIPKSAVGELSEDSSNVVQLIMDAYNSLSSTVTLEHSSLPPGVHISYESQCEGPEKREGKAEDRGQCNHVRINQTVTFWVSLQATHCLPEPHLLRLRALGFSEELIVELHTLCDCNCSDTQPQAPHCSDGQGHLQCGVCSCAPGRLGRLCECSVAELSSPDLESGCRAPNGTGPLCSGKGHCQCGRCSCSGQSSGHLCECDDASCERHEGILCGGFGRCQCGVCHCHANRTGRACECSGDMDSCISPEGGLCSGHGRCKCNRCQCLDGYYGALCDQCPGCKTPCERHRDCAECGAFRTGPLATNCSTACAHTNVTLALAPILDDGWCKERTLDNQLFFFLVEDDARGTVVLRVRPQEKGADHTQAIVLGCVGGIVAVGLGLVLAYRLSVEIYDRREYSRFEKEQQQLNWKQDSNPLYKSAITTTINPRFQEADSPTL
Procedure, shortened: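 Adhesion read-out: MTT absorbance at 570 nm minus no-cell wells, after three washes. Plates coated with rh MAdCAM-1/Fc received peptide dilutions plus 200,000 RPMI 8866 cells in Mn2+ (1 mM)-supplemented DMEM, 0.1% BSA, HEPES pH 7, incubated 30-45 min, 37 °C.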

[7] = target: T2, α4β7; assay: PBMC Memory T Cell Adhesion Assay, adhesion to MAdCAM-1; assay type: cell-based; conditions: Table 3-B; range classes; read-out: PBMC IC50
Protocol: Fresh CD4+/CD45RO+ memory T cells were isolated from human peripheral blood mononuclear cell (PBMC) donors by Aragen Bioscience Inc. (Morgan Hill, Calif.). The assay plate was prepared using IgG Fc capture antibody (donkey anti human) immobilized at 500 ng/well in 50 mM sodium bicarbonate buffer, pH 9.5, ON, 4C onto a Greiner Fluotrac plate (100 ul per well). The plate was rinsed two time with Blocking Buffer (25 mM Tris HCl, pH7.5, 150 mM NaCl, 1.5% BSA, 0.05% Tween), and blocked with Blocking Buffer for 2 hours at 37 C or 5 hours at RT using 200 ul per well. The Blocking Buffer was removed and either MAdCAM-1 or VCAM-1 at 400 ng/well in Blocking Buffer was added and the plate incubated overnight at 4C (100 ul per well). The plate was washed two times with Blocking Buffer, and rinsed once with 200 ul Binding Media (DMEM phenol red free, 10 mM HEPES, 1×Na pyruvate, 1× Glutamine, and supplemented with 1 mM MnCl2 prior to use). To prepare cells, approximately 25 million CD4+/CD45RO+ memory T cells were counted by trypan blue exclusion using a haemocytometer to determine viability and cell count. The cells were transferred to a 50 ml conical tube, and centrifuged at 1200 rpm for 10 minute. The media was aspirated and the cell pellet resuspended in 15 ml Binding Media. The cells were centrifuged again and resuspended in the appropriate amount of Binding Media to be used for assays (50 ul of cells per well at 2× the final density). To each well, and equal volume (50 ul) of test compound was added and the plate was incubated for 1.5 hours at 37 C, 5% CO2. Each well was rinsed 3× with 150 ul per well of Binding Media. […] The plate was incubated at 37 C, 5% CO2, for 45 minutes. The plate was protected from light by using black adhesive seals. Fluorescence intensity was measured using a Molecular Devices Gemini EM Fluorescent Plate Reader (Ex 485/Em530, Bottom Read, Reading Sensitivity=20). IC50 curves are generated using Graph Pad Prism and the curves analyzed using analyzed using a non-linear regression (four parameters) algorithm. The log (concentration) versus RFU (Ex485/Em530) was plotted to determine IC50 values.

[8] = target: T3, α4β1 (Homo sapiens, UniProt P05556+P13612, DEL729-798); assay: α4β1-VCAM Competition ELISA; assay type: binding; conditions: Table 3-B, Selectivity (α4β1); range classes; read-out: α4β1 ELISA IC50
T3 construct: purchased R&D Systems 5668-A4
T3 sequence (P13612 34-977 limits assumed, stated change not applied): as the sequence (P13612 34-977 limits assumed) above
T3 sequence (P05556 21-728 limits assumed, stated change not applied): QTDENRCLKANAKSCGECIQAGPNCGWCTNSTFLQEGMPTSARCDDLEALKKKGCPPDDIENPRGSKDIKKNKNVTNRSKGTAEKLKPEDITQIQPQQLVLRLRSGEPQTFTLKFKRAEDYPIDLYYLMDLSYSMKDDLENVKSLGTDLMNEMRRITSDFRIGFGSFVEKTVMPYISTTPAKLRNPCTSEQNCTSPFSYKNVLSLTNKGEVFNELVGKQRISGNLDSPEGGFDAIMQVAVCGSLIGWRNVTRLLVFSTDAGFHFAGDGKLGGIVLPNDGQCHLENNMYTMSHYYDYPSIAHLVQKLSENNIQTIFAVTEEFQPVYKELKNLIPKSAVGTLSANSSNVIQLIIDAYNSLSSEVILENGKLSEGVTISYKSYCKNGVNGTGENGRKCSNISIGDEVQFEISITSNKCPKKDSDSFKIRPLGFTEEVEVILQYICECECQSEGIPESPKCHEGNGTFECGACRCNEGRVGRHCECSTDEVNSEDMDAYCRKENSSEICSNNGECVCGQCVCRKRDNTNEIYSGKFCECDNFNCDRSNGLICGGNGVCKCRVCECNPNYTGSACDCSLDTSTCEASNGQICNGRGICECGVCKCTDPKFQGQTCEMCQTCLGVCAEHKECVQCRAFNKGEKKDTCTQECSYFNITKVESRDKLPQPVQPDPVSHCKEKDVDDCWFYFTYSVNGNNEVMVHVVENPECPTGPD
Procedure, shortened: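 ELISA plates were coated with VCAM-1 Fc at 400 ng/well. Peptide dilutions (highest final 100 μM) and 60 nM α4β1 were incubated 2 h at 37 °C in pH 7.6 Tris buffer containing 1 mM Mn2+ or Mg2+. Integrin retained on the plate was detected by 9F10 antibody, then HRP secondary, with TMB absorbance at 450 nm.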

[9] = target: α4β1 (Homo sapiens, UniProt P05556+P13612); assay: α4β1-VCAM Cell Adhesion Assay (Jurkat E6.1 human cells); assay type: cell-based; design: host or cells: Jurkat E6.1 human T cells; conditions: Table 3-B, Selectivity (α4β1); range classes; read-out: α4β1 cell IC50
Sequence of α4β1 (Homo sapiens, UniProt P05556+P13612) (P13612 34-1032): as the sequence (P13612 34-1032) above
Sequence of α4β1 (Homo sapiens, UniProt P05556+P13612) (P05556 21-798): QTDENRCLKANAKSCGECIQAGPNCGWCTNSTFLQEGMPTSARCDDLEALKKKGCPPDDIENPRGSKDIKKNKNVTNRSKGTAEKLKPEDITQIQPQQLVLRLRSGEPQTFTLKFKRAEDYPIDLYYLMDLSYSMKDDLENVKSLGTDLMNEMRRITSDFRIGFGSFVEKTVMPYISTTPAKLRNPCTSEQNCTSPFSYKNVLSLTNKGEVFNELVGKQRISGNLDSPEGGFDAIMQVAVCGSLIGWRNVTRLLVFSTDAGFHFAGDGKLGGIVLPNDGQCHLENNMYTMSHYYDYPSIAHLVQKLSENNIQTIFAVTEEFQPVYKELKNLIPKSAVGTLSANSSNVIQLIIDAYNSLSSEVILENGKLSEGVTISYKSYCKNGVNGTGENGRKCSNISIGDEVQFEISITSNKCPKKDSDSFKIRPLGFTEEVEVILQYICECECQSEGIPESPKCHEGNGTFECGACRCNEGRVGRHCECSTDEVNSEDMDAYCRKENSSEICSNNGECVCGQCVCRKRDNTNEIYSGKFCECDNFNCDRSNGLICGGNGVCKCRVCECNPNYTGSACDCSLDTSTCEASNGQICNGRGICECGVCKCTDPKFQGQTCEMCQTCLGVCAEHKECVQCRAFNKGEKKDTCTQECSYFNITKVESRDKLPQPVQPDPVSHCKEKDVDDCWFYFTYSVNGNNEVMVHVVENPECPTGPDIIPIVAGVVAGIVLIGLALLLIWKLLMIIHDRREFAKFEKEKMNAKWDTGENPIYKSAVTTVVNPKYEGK
Protocol: Jurkat E6.1 human cells (Sigma #88042803) were cultured in RPMI 1640 HEPES medium (Invitrogen #22400-089) supplemented with 10% serum (Fetal Bovine Serum, Invitrogen #16140-071), 1 mM sodium pyruvate (Invitrogen #11360-070), 2 mM L-glutamine (Invitrogen #25030-081) and Penicillin-Streptomycin (Invitrogen #15140-122) at 100 units of penicillin and 100 μg of streptomycin per ml. The cells were washed two times in DMEM medium (ATCC #30-2002) supplemented with 0.1% BSA, 10 mM HEPES pH 7 and 1 mM MnCl2. The cells were re-suspended in supplemented DMEM medium at a density of 4×10^6 cells/ml.
A Nunc MaxiSorp plate was coated with rh VCAM-1/CD106 Fc chimera (R&D #862-VC) at 400 ng per well in 50 ul per well in 1×PBS and incubated at 4° C. overnight. The solution was then removed by shaking, blocked with 250 ul per well PBS containing 1% BSA, and incubated at 37° C. for 1 hr. The solution was removed by shaking. Peptides were diluted by serial dilution in a final volume of 50 ul per well (2× concentration). To each well, 50 ul of cells (200,000 cells) were added and the plate was incubated at 37° C., 5% CO2 for 30-45 min to allow cell adhesion. The wells were washed manually three times (100 ul per wash) with supplemented DMEM. After the final wash, 100 ul/well of supplemented DMEM and 10 ul/well of MTT reagent (ATTC cat#30-1010K) were added. The plate was incubated at 37° C., 5% CO2 for 2-3 hrs until a purple precipitate was visible. 100 ul of Detergent Reagent (ATTC cat#30-1010K) was added to each well. The plate was covered from the light, wrapped in Parafilm to prevent evaporation, and left overnight at room temperature in the dark. The plate was shaken for 5 min and the absorbance at 570 nm was measured. To calculate the dose response, the absorbance value of control wells not containing cells was subtracted from each test well.

[10] = pH 6.5, Table 4-C, t1/2, > means assay stopped at that time, read-out: SIF (porcine) Min

CC(=O)N[C@H]1CSSC[C@@H](C(=O)N[C@@H](CCCCNC(=O)CCOCCOCCOCCOCCOCCOCCOCCOCCOCCOCCOCCOCCOCCOCCOCCOCCOCCOCCOCCOCCOCCOCCOCCOCCOCCOCCC(=O)NCCCC[C@H](NC(=O)[C@@H]2CSSC[C@H](NC(C)=O)C(=O)N(C)[C@@H](CCCNC(=N)N)C(=O)N[C@@H](CO)C(=O)N[C@@H](CC(=O)O)C(=O)N[C@@H]([C@@H](C)O)C(=O)N[C@@H](CC(C)C)C(=O)N2)C(=O)O)C(=O)O)NC(=O)[C@H](CC(C)C)NC(=O)[C@H]([C@@H](C)O)NC(=O)[C@H](CC(=O)O)NC(=O)[C@H](CO)NC(=O)[C@H](CCCNC(=N)N)N(C)C1=O [compound 200, (Ac-C-N-Me-R-S-D-T-L-C-K-OH)2-PEG25] (I: Ac-C[NMeR]SDTLCK-OH / II: Ac-C[NMeR]SDTLCK-OH; disulfide I:1-I:7, II:1-II:7 (inferred); linker I:8-II:8 via X1 (inferred))
half-life at 20 μM [1]: > 360 min
half-life at 20 μM [2]: 88 min
half-life at 22 μM [3, 10]: 8 min

CC(=O)N[C@@H]1C(=O)N[C@@H](CCCNC(=N)N)C(=O)N[C@@H](CO)C(=O)N[C@@H](CC(=O)O)C(=O)N[C@@H]([C@@H](C)O)C(=O)N[C@@H](CC(C)C)C(=O)N[C@H](C(=O)N[C@H](CCCCN)C(N)=O)CSSC1(C)C [compound 206, Ac-Pen-R-S-D-T-L-C-k-NH2] (Ac-[Pen]RSDTLC[dK]-NH2; disulfide 1-7)
DTT Min [4]: 52 min
IC50 [5]: 97 nM
half-life at 22 μM [3, 10]: 26 min

CC(=O)N[C@@H]1C(=O)N(C)[C@@H](CCCNC(=N)N)C(=O)N[C@@H](CO)C(=O)N[C@@H](CC(=O)O)C(=O)N[C@@H]([C@@H](C)O)C(=O)N[C@@H](CC(C)C)C(=O)N[C@H](C(=O)N[C@@H](Cc2ccc(C(C)(C)C)cc2)C(=O)N[C@@H](CCC(=O)O)CC(N)=O)C(C)(C)SSC1(C)C [compound 165] (Ac-[Pen][NMeR]SDTL[Pen][Phe(4-tBu)][β3hE]-NH2; disulfide 1-7)
IC50 [6]: 10 to 25 nM
half-life at 22 μM ([3]; pH 6.5, Table 3-B, > means experiment was stopped at that time and half life was not reached, read-out: Stabilty SIF t1/2): > 180 min
IC50 [7]: 100 to 500 nM

CC(=O)N[C@@H]1C(=O)N(C)[C@@H](CCCNC(=N)N)C(=O)N[C@@H](CO)C(=O)N[C@@H](CC(=O)O)C(=O)N[C@@H]([C@@H](C)O)C(=O)N[C@@H](CC(C)C)C(=O)N[C@H](C(=O)N[C@@H](Cc2ccc3ccccc3c2)C(=O)N[C@H](CCC(=O)O)C(=O)N[C@H](CCCCNC(=O)COCC(=O)NCCCC[C@@H](NC(=O)[C@@H](CCC(=O)O)NC(=O)[C@H](Cc2ccc3ccccc3c2)NC(=O)[C@H]2NC(=O)[C@H](CC(C)C)NC(=O)[C@H]([C@@H](C)O)NC(=O)[C@H](CC(=O)O)NC(=O)[C@H](CO)NC(=O)[C@H](CCCNC(=N)N)N(C)C(=O)[C@@H](NC(C)=O)C(C)(C)SSC2(C)C)C(N)=O)C(N)=O)C(C)(C)SSC1(C)C [compound 33] (I: Ac-[Pen][NMeR]SDTL[Pen][2Nal][dE][dK]-NH2 / II: Ac-[Pen][NMeR]SDTL[Pen][2Nal][dE][dK]-NH2; disulfide I:1-I:7, II:1-II:7; linker I:10-II:10 via Diglycolyl)
IC50 [8]: 100 to 500 nM
IC50 [9]: > 100000 nM
